# Assay results as given in ChEMBL document CHEMBL3352057, “Novel fluorinated pyrrolo[1,2-a]pyrazine-2,6-dione derivatives: synthesis and anticonvulsant evaluation in animal models of epilepsy” (Bioorg Med Chem, 2014).
# The source made the active and inactive calls. The rule behind the calls is not given here.
# How the values were obtained:
# Mus musculus [1] = experiment: Anticonvulsant activity in albino CF1 mouse assessed as protection against maximal electroshock-induced seizures at 100 mg/kg, ip measured after 0.25 hr; format: functional, organism-based; set-up: dose 100 mg/kg
# Mus musculus [2] = experiment: Anticonvulsant activity in albino CF1 mouse assessed as protection against maximal electroshock-induced seizures at 100 mg/kg, ip measured after 0.5 hr; format: functional, organism-based; set-up: dose 100 mg/kg
# Mus musculus [3] = experiment: Anticonvulsant activity in albino CF1 mouse assessed as protection against maximal electroshock-induced seizures at 100 mg/kg, ip measured after 4 hrs; format: functional, organism-based; set-up: dose 100 mg/kg
# Mus musculus [4] = experiment: Neurotoxicity in albino CF1 mouse at 100 mg/kg, ip measured after 0.25 hr; format: toxicity, organism-based; set-up: dose 100 mg/kg, route intraperitoneal; conditions: in vivo
# Mus musculus [5] = experiment: Neurotoxicity in albino CF1 mouse at 100 mg/kg, ip measured after 1 hr; format: toxicity, organism-based; set-up: dose 100 mg/kg, route intraperitoneal; conditions: in vivo
# Mus musculus [6] = experiment: Anticonvulsant activity in albino CF1 mouse assessed as protection against 32 mA current-induced seizures at 100 mg/kg, ip measured after 0.25 hr; format: functional, organism-based; set-up: dose 100 mg/kg
# Mus musculus [7] = experiment: Anticonvulsant activity in albino CF1 mouse assessed as protection against 32 mA current-induced seizures at 100 mg/kg, ip measured after 0.5 hr; format: functional, organism-based; set-up: dose 100 mg/kg
# Mus musculus [8] = experiment: Neurotoxicity in 32 mA current-induced seizure albino CF1 mouse model at 100 mg/kg, ip measured after 0.25 hr; format: toxicity, organism-based; set-up: dose 100 mg/kg, route intraperitoneal; conditions: in vivo
# Mus musculus [9] = experiment: Neurotoxicity in 32 mA current-induced seizure albino CF1 mouse model at 100 mg/kg, ip measured after 1 hr; format: toxicity, organism-based; set-up: dose 100 mg/kg, route intraperitoneal; conditions: in vivo
# Mus musculus [10] = experiment: Neurotoxicity in 32 mA current-induced seizure albino CF1 mouse model at 100 mg/kg, ip measured after 4 hrs; format: toxicity, organism-based; set-up: dose 100 mg/kg, route intraperitoneal; conditions: in vivo
# Mus musculus [11] = experiment: Anticonvulsant activity in albino CF1 mouse assessed as protection against 44 mA current-induced seizures at 100 mg/kg, ip measured after 1 hr; format: functional, organism-based; set-up: dose 100 mg/kg
# Mus musculus [12] = experiment: Anticonvulsant activity in albino CF1 mouse assessed as protection against 44 mA current-induced seizures at 100 mg/kg, ip measured after 2 hrs; format: functional, organism-based; set-up: dose 100 mg/kg
# Mus musculus [13] = experiment: Neurotoxicity in 44 mA current-induced seizure albino CF1 mouse model at 100 mg/kg, ip measured after 1 hr; format: toxicity, organism-based; set-up: dose 100 mg/kg, route intraperitoneal; conditions: in vivo
# Rattus norvegicus [14] = experiment: Anticonvulsant activity in Sprague-Dawley rat assessed as protection against maximal electroshock-induced seizures at 30 mg/kg, po measured after 0.25 hr; format: functional, organism-based; set-up: dose 30 mg/kg
# Rattus norvegicus [15] = experiment: Anticonvulsant activity in Sprague-Dawley rat assessed as protection against maximal electroshock-induced seizures at 30 mg/kg, po measured after 0.5 hr; format: functional, organism-based; set-up: dose 30 mg/kg
# Rattus norvegicus [16] = experiment: Anticonvulsant activity in Sprague-Dawley rat assessed as protection against maximal electroshock-induced seizures at 30 mg/kg, po measured after 2 hrs; format: functional, organism-based; set-up: dose 30 mg/kg
# Rattus norvegicus [17] = experiment: Neurotoxicity in MES Sprague-Dawley rat model at 30 mg/kg, po measured after 0.25 hr; format: toxicity, organism-based; set-up: dose 30 mg/kg, route oral; conditions: in vivo
# Rattus norvegicus [18] = experiment: Neurotoxicity in MES Sprague-Dawley rat model at 30 mg/kg, po measured after 0.5 hr; format: toxicity, organism-based; set-up: dose 30 mg/kg, route oral; conditions: in vivo
# Rattus norvegicus [19] = experiment: Neurotoxicity in MES Sprague-Dawley rat model at 30 mg/kg, po measured after 1 hr; format: toxicity, organism-based; set-up: dose 30 mg/kg, route oral; conditions: in vivo
# Rattus norvegicus [20] = experiment: Neurotoxicity in MES Sprague-Dawley rat model at 30 mg/kg, po measured after 2 hrs; format: toxicity, organism-based; set-up: dose 30 mg/kg, route oral; conditions: in vivo
# Rattus norvegicus [21] = experiment: Neurotoxicity in MES Sprague-Dawley rat model at 30 mg/kg, po measured after 4 hrs; format: toxicity, organism-based; set-up: dose 30 mg/kg, route oral; conditions: in vivo
# Rattus norvegicus [22] = experiment: Anticonvulsant activity in Sprague-Dawley rat assessed as protection against maximal electroshock-induced seizures at 30 mg/kg, ip measured after 0.25 hr; format: functional, organism-based; set-up: dose 30 mg/kg
# Rattus norvegicus [23] = experiment: Anticonvulsant activity in Sprague-Dawley rat assessed as protection against maximal electroshock-induced seizures at 30 mg/kg, ip measured after 0.5 hr; format: functional, organism-based; set-up: dose 30 mg/kg
# Rattus norvegicus [24] = experiment: Anticonvulsant activity in Sprague-Dawley rat assessed as protection against maximal electroshock-induced seizures at 30 mg/kg, ip measured after 2 hrs; format: functional, organism-based; set-up: dose 30 mg/kg
# Rattus norvegicus [25] = experiment: Neurotoxicity in MES Sprague-Dawley rat model at 30 mg/kg, ip measured after 2 hrs; format: toxicity, organism-based; set-up: dose 30 mg/kg, route intraperitoneal; conditions: in vivo
# Rattus norvegicus [26] = experiment: Neurotoxicity in MES Sprague-Dawley rat model at 30 mg/kg, ip measured after 4 hrs; format: toxicity, organism-based; set-up: dose 30 mg/kg, route intraperitoneal; conditions: in vivo
# Mus musculus [27] = experiment: Anticonvulsant activity in ip dosed albino CF1 mouse assessed as protection against maximal electroshock-induced seizures; format: functional
# Mus musculus [28] = experiment: Anticonvulsant activity in ip dosed albino CF1 mouse assessed as protection against subcutaneous metrazol-induced seizures; format: functional
# [29] = Neurotoxicity in ip dosed albino CF1 mouse; format: toxicity, organism-based; conditions: in vivo
# Mus musculus [30] = experiment: Anticonvulsant activity in ip dosed albino CF1 mouse assessed as protection against maximal electroshock-induced seizures measured as time to peak effect; format: functional
# Rattus norvegicus [31] = experiment: Anticonvulsant activity in ip dosed Sprague-Dawley rat assessed as protection against maximal electroshock-induced seizures; format: functional
# [32] = Neurotoxicity in ip dosed Sprague-Dawley rat; format: toxicity, organism-based; conditions: in vivo
# Rattus norvegicus [33] = experiment: Anticonvulsant activity in ip dosed Sprague-Dawley rat assessed as protection against maximal electroshock-induced seizures measured as time to peak effect; format: functional
# Mus musculus [34] = experiment: Anticonvulsant activity in ip dosed albino CF1 mouse assessed as protection against 32 mA current-induced seizures; format: functional
# Mus musculus [35] = experiment: Anticonvulsant activity in ip dosed albino CF1 mouse assessed as protection against 6 Hz current-induced seizures measured as time to peak effect; format: functional
# Mus musculus [36] = experiment: Anticonvulsant activity in ip dosed corneal kindled albino CF1 mouse seizure model; format: functional
# Mus musculus [37] = experiment: Anticonvulsant activity in ip dosed corneal kindled albino CF1 mouse seizure model assessed as time to peak effect; format: functional
# Rattus norvegicus [38] = experiment: Anticonvulsant activity in ip dosed hippocampal kindled albino Sprague-Dawley rat seizure model; format: functional; conditions: Hippocampus
# Rattus norvegicus [39] = experiment: Anticonvulsant activity in ip dosed hippocampal kindled albino Sprague-Dawley rat seizure model assessed as time of rest; format: functional, Hippocampus
# Mus musculus [40] = experiment: Anticonvulsant activity in ip dosed albino CF1 mouse assessed as protection against iv infusion metrazol-induced seizures; format: functional, organism-based
# Mus musculus [41] = experiment: Anticonvulsant activity in albino CF1 mouse assessed as protection against iv infusion metrazol-induced seizures measured as weight at 24 mg/kg, ip (reference value: 26.75 grams); format: functional
# Mus musculus [42] = experiment: Anticonvulsant activity in albino CF1 mouse assessed as protection against iv infusion metrazol-induced seizures measured as weight at 79 mg/kg, ip (reference value: 26.75 grams); format: functional
# Mus musculus [43] = experiment: Anticonvulsant activity in albino CF1 mouse assessed as protection against iv infusion metrazol-induced seizures measured as time to twitch at 24 mg/kg, ip (reference value: 26.6 seconds); format: functional
# Mus musculus [44] = experiment: Anticonvulsant activity in albino CF1 mouse assessed as protection against iv infusion metrazol-induced seizures measured as time to twitch at 79 mg/kg, ip (reference value: 26.6 seconds); format: functional
# Mus musculus [45] = experiment: Anticonvulsant activity in albino CF1 mouse assessed as protection against iv infusion metrazol-induced seizures measured as twitch at 79 mg/kg, ip (reference value: 28.2 mg/kg); format: functional
# Mus musculus [46] = experiment: Anticonvulsant activity in albino CF1 mouse assessed as protection against iv infusion metrazol-induced seizures measured as time to clonus at 79 mg/kg, ip (reference value: 29.4 seconds); format: functional
# Mus musculus [47] = experiment: Anticonvulsant activity in albino CF1 mouse assessed as protection against iv infusion metrazol-induced seizures measured as clonus at 24 mg/kg, ip (reference value: 31.1 mg/kg); format: functional
compound,measurement,setting,value
O=C1NC(=O)[C@@H]2CCCN2[C@H]1c1cccc(OC(F)(F)F)c1,Activity,Mus musculus [1],Active
same,Activity,Mus musculus [2],Active
same,Activity,Mus musculus [3],inactive
same,Activity,Mus musculus [4],Toxic
same,Activity,Mus musculus [5],Non-toxic
same,Activity,Mus musculus [6],Active
same,Activity,Mus musculus [7],Active
same,Activity,Mus musculus [8],Toxic
same,Activity,Mus musculus [9],Non-toxic
same,Activity,Mus musculus [10],Non-toxic
same,Activity,Mus musculus [11],Active
same,Activity,Mus musculus [12],inactive
same,Activity,Mus musculus [13],Non-toxic
same,Activity,Rattus norvegicus [14],inactive
same,Activity,Rattus norvegicus [15],inactive
same,Activity,Rattus norvegicus [16],inactive
same,Activity,Rattus norvegicus [17],Non-toxic
same,Activity,Rattus norvegicus [18],Non-toxic
same,Activity,Rattus norvegicus [19],Non-toxic
same,Activity,Rattus norvegicus [20],Non-toxic
same,Activity,Rattus norvegicus [21],Non-toxic
same,Activity,Rattus norvegicus [22],Active
same,Activity,Rattus norvegicus [23],Active
same,Activity,Rattus norvegicus [24],inactive
same,Activity,Rattus norvegicus [25],Non-toxic
same,Activity,Rattus norvegicus [26],Non-toxic
same,ED50,Mus musculus [27],76 µmol/kg
same,ED50,Mus musculus [28],200 µmol/kg
same,TD50,[29],252 µmol/kg
same,Time,Mus musculus [30],0.25 h
same,ED50,Rattus norvegicus [31],40 µmol/kg
same,TD50,[32],114 µmol/kg
same,Time,Rattus norvegicus [33],0.25 h
same,ED50,Mus musculus [34],176 µmol/kg
same,Time,Mus musculus [35],0.25 h
same,ED50,Mus musculus [36],171 µmol/kg
same,Time,Mus musculus [37],0.25 h
same,ED50,Rattus norvegicus [38],48 µmol/kg
same,Time,Rattus norvegicus [39],0.25 h
same,Activity,Mus musculus [40],Dose-dependent effect
same,Activity,Mus musculus [41],26.8 g
same,Activity,Mus musculus [42],27.6 g
same,Time,Mus musculus [43],33.3 s
same,Time,Mus musculus [44],63.1 s
same,Activity,Mus musculus [45],64.8 mg/kg
same,Time,Mus musculus [46],94.6 s
same,Activity,Mus musculus [47],41.7 mg/kg
